Measured values as given in patent US11759496B2, “Compounds and pharmaceutical use thereof in the treatment of cancer” (priority 2016, dated 2023).
Like-named read-outs stand apart in the source and are kept apart here. Non-standard residues stand in square brackets, D forms with d. No end group written: not given here.

How the values were obtained:
[1] = target: T1, CD47 (membrane preparation from MEC-1 cells) (Homo sapiens, UniProt Q08722); test: Binding affinity by biolayer interferometry (Octet RED96) on biotinylated MEC-1 cell membrane preparation; details: NPD = Non Pertinent Data; for Kd(μM)PR: Table 4, N-methyl peptides
T1 construct: MEC-1 cell membrane preparation were biotinylated with the EZ-Link NHS-PEG4-Biotin kit; endogenous in cells; host or cells: MEC-1 cells (membrane preparation)
T1 sequence (Q08722 19-323): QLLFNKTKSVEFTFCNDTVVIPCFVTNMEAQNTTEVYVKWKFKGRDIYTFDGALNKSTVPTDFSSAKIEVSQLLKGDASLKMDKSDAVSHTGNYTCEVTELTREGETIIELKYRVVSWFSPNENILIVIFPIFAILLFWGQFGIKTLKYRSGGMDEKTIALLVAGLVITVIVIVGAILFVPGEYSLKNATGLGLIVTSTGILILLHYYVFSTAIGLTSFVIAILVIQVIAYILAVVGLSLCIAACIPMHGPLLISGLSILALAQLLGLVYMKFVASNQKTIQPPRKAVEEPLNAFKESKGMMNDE
Procedure: The binding affinities of peptides for a membrane preparation from MEC-1 cells were measured by biolayer interferometry on an Octet RED96 System (Pall FortéBio Corp., Menlo Park, Calif.).
The binding affinities of peptides for a membrane preparation from MEC-1 cells were measured by biolayer interferometry on an Octet RED96 System (Pall FortéBio Corp., Menlo Park, Calif.). This system monitors interference of light reflected from two sources (an internal reflection surface and the liquid/solid interface of a fiber optic sensor) to measure the rate of binding of molecules to the biosensor surface.
MEC-1 cell membrane preparation were biotinylated with the EZ-Link NHS-PEG4-Biotin kit from Thermo-Scientific. Biotinylated membranes were then loaded onto SuperStreptavidin (SSA) biosensors (Pall FortéBio Corp.) at empirically determined concentrations.
In order to highlight the pharmacological properties of these peptides, a systematic SAR study by the development of a binding assay allowing to the assessment of the affinity of the 4N1K analogues to CD47 was initiated. […] An Ala-scan to identify the pharmacophores of 4N1K was implemented.
The binding affinities of peptides for a MEC-1 cells membrane preparation were measured by biolayer interferometry on an Octet RED96 System (Pall FortéBio Corp., Menlo Park, Calif.). This system monitors interference of light reflected from two sources (an internal reflection surface and the liquid/solid interface of a fiber optic sensor) to measure the rate of binding of molecules to the biosensor surface. MEC-1 cells membrane preparation is biotinylated with the EZ-Link NHS-PEG4-Biotin kit from Thermo-Scientific and excess biotin is removed using desalting column from Thermo-Scientific. Biotinylated membranes are then loaded onto SuperStreptavidin (SSA) biosensors (Pall FortéBio Corp.) at empirically determined concentrations. […] Typically, the biosensors were pre-equilibrated in PBS containing either biotinylated membranes or biocytine 100 μg/mL. Biosensors are then equilibrated in assay buffer for 10 min, brought to baseline in assay buffer for 60 sec. and transferred to wells containing peptide in dose-response (association for 120 sec. and dissociation for 300 sec.). The double reference with either membrane-loaded biosensors without any peptide dose-response or biocytine-loaded biosensors with each peptide dose-response were run in parallel for background signal double subtractions. Binding kinetics were calculated using the FortéBio Data Analysis v8.2 software.

MEC-1 cells = test: MEC-1 cell death (PCD) after 2 h peptide treatment; format: cell-based; details: for MEC-1 Cell Death (%) 2 h: Table 2, NPD = Non Pertinent Data; for MEC-1 Cell Death (%) 2 h, [peptides] = 200 μM: Table 3, 200 μM peptide; for Cell Death (MEC-1, 2 h): Table 4
Procedure: Then the peptides structures were tested via NMR and X-ray. The peptides were also tested for their activity on MEC-1 and their KDs and Retention times on LCMS were determined.

[2] = tested on: B-chronic lymphocytic leukemia (CLL) primary cells; details: WO 2013/182650, cited from earlier work
[3] = Table 2, average of at least three independent experiments, read-out: Kd (μM) (OR)
[4] = Table 3, average of two or more measurements, read-out: Kd

| Compound | Kd [1, 3] [µM] | Kd [1, 4] [µM] | MEC-1 Cell Death (%) 2 h (MEC-1 cells) [%] | MEC-1 Cell Death (%) 2 h, [peptides] = 200 μM (MEC-1 cells) [%] | selective elimination of leukemic B-cells versus healthy B-lymphocytes [2] | induction of PCD ([2]; soluble peptide) | Cell Death (MEC-1, 2 h) (MEC-1 cells) [%] | Kd(μM)PR [1] | Kd (μM) ([1]; Table 3, average of two or more measurements) |
| --- | --- | --- | --- | --- | --- | --- | --- | --- | --- |
| CSCC[C@H](NC(=O)[C@@H](NC(=O)[C@@H](NC(=O)[C@H](Cc1ccc(O)cc1)NC(=O)[C@H](Cc1ccccc1)NC(=O)[C@H](CCCNC(=N)N)NC(=O)[C@@H](N)CCCCN)C(C)C)C(C)C)C(=O)N[C@@H](Cc1c[nH]c2ccccc12)C(=O)N[C@@H](CCCCN)C(=O)N[C@@H](CCCCN)C(=O)O [4N1K, reference compound] | 19 ± 1.6 | 19 ± 1.6 | 23 | 23 | specifically eliminates leukemic B-cells | induces caspase-independent PCD |  |  |  |
| CSCC[C@H](NC(=O)[C@@H](NC(=O)[C@@H](NC(=O)[C@H](Cc1ccc(O)cc1)NC(=O)[C@H](Cc1ccccc1)NC(=O)[C@H](CCCNC(=N)N)NC(=O)[C@H](N)CCCCN)C(C)C)C(C)C)C(=O)N[C@@H](Cc1c[nH]c2ccccc12)C(=O)N[C@@H](CCCCN)C(=O)N[C@H](CCCCN)C(=O)O [PKHB1, reference compound] | 43 ± 21 | 43 ± 21 | 63 | 63 | specifically eliminates leukemic B-cells |  | 78 |  |  |
| H-(D)K R F Y V V M W ψ(CONMe)K (D)K-OH (KRFYVVMWKK; D-residues, N-methyl amide bond; (1)..(1) Amino acid at position 1 is in the D-configuration; (9)..(9) Amino acid at position 9 is backbone-N- …ON of the Lysine; (10)..(10) Amino acid at position 10 is in the D-configuration) [PKT14] |  |  |  |  |  |  | 35 | NPD |  |
| H-(D)K R F Y V V ψ(CONMe)M W K (D)K-OH (KRFYVVMWKK; D-residues, N-methyl amide bond; (1)..(1) Amino acid at position 1 is in the D-configuration; (7)..(7) Amino acid at position 7 is backbone-N- …ON of the Methionine; (10)..(10) Amino acid at position 10 is in the D-configuration) [PKT13] |  |  |  |  |  |  | 0 | NPD |  |
| kRF(A)VVMWKk ([dK]RFAVVMWK[dK]) [Y4/A] |  |  |  | 0 |  |  |  |  | NPD |
